In US9408813B2, “Small-molecule inhibitors of dengue virus proteases” (THE BOARD OF REGENTS OF THE UNIVERSITY OF TEXAS SYSTEM, priority 2013, dated 2016):
Read-outs that look alike come from different tables or passages of the source.

Target: T1, DENV NS2B-NS3 protease (Dengue virus type 2, UniProt P29990)
T1 construct: plasmid construct CF40-Gly-NS3pro185; made in house; host or cells: E. coli
Assay: NS2B-NS3 protease steady-state kinetic inhibition assay (Boc-GRR-AMC substrate, Dynafit global fit)
Assay type: biochemical, DEN2V (dengue virus serotype 2)
Conditions: 100 nM NS2B-NS3, cleavage buffer pH 9.5, 25° C., two inhibitor concentrations
Description: The DEN2V protease (plasmid construct CF40-Gly-NS3pro185 (Li et al., The Journal of Biological Chemistry, 280, 28766-28774, 2005)) was expressed in E. coli largely following the previously described protocol (Li et al., The Journal of Biological Chemistry, 280, 28766-28774, 2005), although cell growth was continued for 6 hrs at 25° C. following addition of 0.4 mM IPTG (isopropyl-D-thiogalactopyranoside). Purification was as described previously (Li et al., The Journal of Biological Chemistry, 280, 28766-28774, 2005) using metal affinity chromatography. Purified, concentrated NS2B-NS3pro was stored at −80° C. in cleavage buffer (200 mM Tris pH 9.5, 20% glycerol). The activity of the dengue protease was not impacted by a freeze/thaw cycle (data not shown).
Small molecules identified by virtual screening as potential DEN2V protease inhibitors were tested for inhibition activity using NS2B-NS3 protease steady-state kinetic assays as described previously (Li et al., The Journal of Biological Chemistry, 280, 28766-28774, 2005). Briefly, compounds identified in virtual screening experiments were received from established chemical vendors and tested for solubility at 10 mM in DMSO and upon 100-fold dilution from DMSO into cleavage buffer (i.e., 100 μM final compound concentration in 1% DMSO). […] Sequential 10-fold serial dilutions were used to determine the limits of solubility in cleavage buffer as necessary.
Preliminary single-point inhibition assays (Li et al., The Journal of Biological Chemistry, 280, 28766-28774, 2005) were used to check the inhibition activity of compounds using 100 nM NS2B-NS3 and 100 μM substrate Boc-GRR-AMC in cleavage buffer for 30 minutes at 25° C. Fluorescence measurements (lem=465 nm, lex=380 nm) were performed in duplicate on a Fluorolog FL3-22 spectrofluorometer (Horiba Jobin Yvon) and corrected for compound absorption and emission. […] Two inhibitor concentrations were tested. Fluorescence measurements were recorded at 5 minutes intervals from 0 to 30 minutes; fluorescence intensities were converted to AMC product concentrations using calibration curves established with each compound concentration. Each kinetic study was performed in duplicate, and all experiments were repeated three times to ensure all measured parameters were reproducible in independent experiments. Initial velocities at each substrate concentration were calculated from linear curve fits of AMC production per time. The program Dynafit (Biokin, Watertown, Mass.) (Kuzmic, Anal. Biochem., 237, 260-273, 1996) was used to determine Michalen-Menten inhibition model and kinetic parameters that produced the best global fits to the measured velocity versus substrate kinetic data.
These compounds were advanced to detailed kinetic inhibition assays to determine mechanisms of inhibition and inhibition constants. All experiments were performed using two different inhibitor concentrations and a no inhibitor control. Kinetic parameters and inhibition constants were calculated using a generalized Michaelis-Menten model (FIG. 4) and global fitting to all collected velocity versus substrate concentration data (Table 1). […] Further study will be required to determine whether a particular mechanism of inhibition might be advantageous in regard to efficacy against virus replication and/or delay of escape mutants.

[1] = read-out: Inhibition constant Ki1 (competitive component, binding to enzyme)
[2] = read-out: Inhibition constant Ki2 (binding to enzyme-substrate ES complex)
[3] = Inhibition constant Ki1 (competitive component, binding to enzyme)
[4] = read-out: Inhibition constant Ki3 (binding to ES2 complex)

T1 sequence (P29990 1476-1653): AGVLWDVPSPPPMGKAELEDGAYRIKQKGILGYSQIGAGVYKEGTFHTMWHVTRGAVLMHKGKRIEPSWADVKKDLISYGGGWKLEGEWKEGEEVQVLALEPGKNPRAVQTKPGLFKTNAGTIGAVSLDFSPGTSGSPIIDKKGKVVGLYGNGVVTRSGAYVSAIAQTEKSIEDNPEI

Structure (SMILES) | Ki [1] | Ki [2] | further results
c1ccc2c(-c3nnc(-c4ccc5nccnc5c4)o3)cccc2c1 [ZINC00156657] | 95 µM | 45 µM | –
NS(=O)(=O)c1cccc(-c2ccc([C@H]3Nc4ccccc4-c4nc5ccccc5n43)o2)c1 [ZINC01032664] | – | 56 µM | –
Cn1c(=O)c2cc3ccccc3nc2c2c(=O)n(-c3ccccc3)c(=O)n(-c3ccccc3)c21 [ZINC01042004] | – | 28 µM | –
c1ccc(CSc2nnc3nc4c5ccccc5c5ccccc5c4nn23)cc1 [ZINC03120327] | – | – | Ki [3]: 42 µM; Ki (Inhibition constant Ki2 (binding to enzyme-substrate ES complex)): 21 µM
O=C1[C@H]2CSC3(C(=O)c4ccccc4C3=O)N2C(=O)[C@H]2CSC3(C(=O)c4ccccc4C3=O)N12 [ZINC03129319] | – | – | Ki [3]: 92 µM; Ki (Inhibition constant Ki3 (binding to ES2 complex)): 20 µM
O=C1Cc2ccc(F)cc2C[C@@H]1C1=Cc2ccc(F)cc2CC1 [ZINC04321905] | 85 µM | – | –
Cc1nn(-c2ccccc2)nc1C(=O)Nc1nnc(Sc2ccnc3cc(Cl)ccc23)s1 [ZINC08647752] | 60 µM | – | Ki [4]: 14 µM
O=C(NNC(=NS(=O)(=O)c1ccccc1)NNC(=O)c1cccc(Cl)c1)c1cccc(Cl)c1 [ZINC12339756] | – | – | Ki [4]: 64 µM
Cc1ccc(-n2ncc3c2CC(C)(C)C[C@@H]3NC(=O)c2cn(C)c3ccccc3c2=O)cc1 [ZINC12702527] | 288 µM | 421 µM | –
O=C(Nc1cccc(-c2nnc(Cc3ccc4c(c3)OCO4)o2)c1)Nc1ccc2c(c1)CCC2 [ZINC21359030] | – | 4 µM | –
Cc1ccc(S(=O)(=O)Nc2ccc(Cn3cnc(-c4nc(-c5cccc(C)c5)no4)c3)cc2)cc1 [ZINC32974777] | 106 µM | 21 µM | –
Cc1ccn2c(=O)cc(COc3cc(NC(=O)Nc4ccc5c(c4)OCCO5)ccc3C)nc2c1 [ZINC33068105] | 39 µM | 4 µM | –
